Reference: publication PMC7587432, “IP7-SPX Domain Interaction Controls Fungal Virulence by Stabilizing Phosphate Signaling Machinery” (mBio, 2020)

Target: T1, Pho81 (Pho81SPX-GFP; CnPho81) (Cryptococcus neoformans, UniProt J9VLD1)
T1 construct: gene CNAG_02541; full-length Pho81 (N-terminal SPX, ankyrin repeat and GDE domains) with C-terminal GFP, expressed from the GDE2 promoter in C. neoformans H99; whole cell lysate, endogenous Pho80/Pho85/Pcl6/7 present
Experiment: affinity capture from cell lysate on 5-PCP-IP5-conjugated resin, anti-GFP Western blot
Format: biochemical
Details: binds; resin-immobilised analog of 5-PP-IP5; Pi-conjugated resin as control; 50 mM Tris pH 7.5, 150 mM NaCl, 1 mM EDTA, 4 °C, 2 h; SPX domain lysine surface cluster

## O=P(O)(O)CP(=O)(O)O[C@H]1[C@H](OP(=O)(O)O)[C@@H](OP(=O)(O)O)[C@@H](OP(=O)(O)O)[C@@H](OP(=O)(O)O)[C@@H]1OP(=O)(O)O [5-PCP-IP5]
  affinity capture from cell lysate on 5-PCP-IP5-conjugated resin, anti-GFP Wester: native Pho81 binds to the 5-PCP-IP5, but not to the Pi, resin
